pIC50: −log10 of the molar value. Counter-ions that a name gives are not always drawn.

For assay [1], the target named is [^3 H]-LTB4 binding, guinea pig lung membranes (Cavia porcellus, UniProt H0VYV8). The assay is described as follows: [^3 H]-LTB4 Radioligand Binding Assay in Guinea Pig Lung Membranes. The note with it: read-out: Binding Guinea Pig Lung pKi (converted).
Assay [2] deals with [^3 H]-LTB4 binding to receptors on human neutrophils (Homo sapiens, UniProt Q15722). The assay is described as follows: biochemical. The note with it: [^3 H]-LTB4 2.65 nM (20 μl), 4° C., 10 minutes. The method, then:
The effectiveness of the compounds of the present invention to inhibit binding of [^3 H]-LTB4 to human neutrophils was measured by using an adaptation of a radioligand binding assay developed by Goldman, D. W. and Goetzl, E. J.: Specific binding of leukotriene B4 to receptors on human polymornuclear leukocytes. J. Immunol. 129: 1600-1604(1982). Heparinized venous blood was drawn from normal human volunteers and neutrophils isolated by standard techniques of Ficoll-Hypaque centrifugation, dextran 70 sedimentation and hypotonic lysis. […] The binding assay was carried out in silanized 12×75 mm glass tubes by adding in the following order: 10 μl DMSO containing different amounts of test compound,20 μl of 2.65 nM [^3 H]-LTB4 and 500 μl of the cells suspended in Hanks' balanced salt solution containing 0.1% ovalbumin (2×10^7 cells/ml). Tubes were incubated at 4° C. for 10 minutes and the reaction terminated by isolating the cells with a Brandel MB-48R harvester. Radioactivity bound to the cells was measured by scintillation spectrometry. Nonspecific binding was determined by measuring the amount of label bound when a greater than 2000-fold excess of nonradioactive ligand was added. Appropriate corrections for nonspecific binding were made when analyzing the data.

[^3 H]-LTB4 binding, guinea pig lung membranes, sequence (H0VYV8 1-348): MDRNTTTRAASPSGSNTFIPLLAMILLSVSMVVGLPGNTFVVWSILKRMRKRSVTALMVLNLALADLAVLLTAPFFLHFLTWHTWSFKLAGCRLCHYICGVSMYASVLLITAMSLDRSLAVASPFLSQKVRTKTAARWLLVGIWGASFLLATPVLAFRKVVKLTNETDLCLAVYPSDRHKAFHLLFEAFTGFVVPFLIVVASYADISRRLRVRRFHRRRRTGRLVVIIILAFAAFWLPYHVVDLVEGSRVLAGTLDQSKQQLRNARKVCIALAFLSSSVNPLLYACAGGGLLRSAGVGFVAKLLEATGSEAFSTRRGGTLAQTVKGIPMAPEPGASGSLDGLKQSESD
[^3 H]-LTB4 binding to receptors on human neutrophils, sequence (Q15722 whole entry): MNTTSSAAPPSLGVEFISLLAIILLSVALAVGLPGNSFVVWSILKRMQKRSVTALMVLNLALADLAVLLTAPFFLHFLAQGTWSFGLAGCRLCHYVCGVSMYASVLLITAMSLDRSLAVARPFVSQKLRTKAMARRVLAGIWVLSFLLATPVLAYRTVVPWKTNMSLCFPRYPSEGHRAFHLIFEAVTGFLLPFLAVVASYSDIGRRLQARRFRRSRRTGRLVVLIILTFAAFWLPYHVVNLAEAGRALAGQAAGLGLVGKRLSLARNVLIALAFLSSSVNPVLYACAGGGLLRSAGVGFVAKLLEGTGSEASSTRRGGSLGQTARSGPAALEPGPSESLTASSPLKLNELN

Consider `CCc1cc(OCCC(C)C)c(O)cc1OCCCCCC(C)(C)c1nn[nH]n1` [sodium salt], for which the Ki in assay [1] is 74.1 nM.

On to `CCCc1c(OCCCOc2cc(O)c(OC)cc2CC)ccc2c1OC(C(=O)O)CC2` (stereo not shown) [Example 9, 3,4-Dihydro-8-propyl-7-[3-(2-ethyl-5-hydroxy-4-methoxy-phenoxy)propoxy]-2H-1-benzopyran-2-carboxylic acid], for which the Ki in assay [1] was 1.51 nM. Besides, in assay [2], the pIC50 was 8.54.

For `CCc1cc(OC)c(O)cc1OCCCCCC(C)(C)c1nn[nH]n1` [sodium salt], in assay [1], the Ki was 22.9 nM.

As for `CCc1cc(Sc2ccccc2)c(O)cc1OCCCCCC(C)(C)c1nn[nH]n1` [disodium salt], the Ki in assay [1] was 219 nM. For the same compound, the pIC50 in assay [2] is 6.05.

Regarding `CCOc1cc(CC)c(OCCCCCC(C)(C)c2nn[nH]n2)cc1O` [sodium salt], the Ki in assay [1] was 12.3 nM.

On to `CCCCCOc1cc(CC)c(OCCCCCC(C)(C)c2nn[nH]n2)cc1O` [sodium salt], for which the Ki in assay [1] is 21.4 nM.

As to `CCc1cc(OCc2ccc(F)cc2)c(O)cc1OCCCCCC(C)(C)c1nn[nH]n1` [sodium salt], the Ki in assay [1] is 110 nM.

Take `CCc1cc(OC(C)C)c(O)cc1OCCCCCC(C)(C)c1nn[nH]n1` [sodium salt]: the Ki in assay [1] is 40.7 nM.

On to `CCc1cc(OC2CCCC2)c(O)cc1OCCCCCC(C)(C)c1nn[nH]n1` [sodium salt], for which the Ki in assay [1] was 77.6 nM.

`CCCc1c(OCCCOc2cc(O)c(OCC)cc2CC)ccc2c1OC(C(=O)O)CC2` (stereo not shown) [Example 10, 3,4-Dihydro-8-propyl-7-[3-(2-ethyl-5-hydroxy-4-ethoxy-phenoxy)propoxy]-2H-1-benzopyran-2-carboxylic acid]: the Ki in assay [1] was 1.29 nM. The negative-log IC50 (pIC50) in assay [2] is 8.38.

As usually defined, the pIC50 is the IC50 on a negative log10 scale, so that one unit is a factor of ten.

The record behind these values is US5352690A, “1,2,4-trioxygenated benzene derivatives useful as leukotriene antagonists” (Eli Lilly and Company, priority 1992, dated 1994).
